Data from patent US8546565B2, “Quinazolinamide derivatives” (Merck Patent Gesellschaft, priority 2008, dated 2013).

biological target: T1, Recombinant human HSP90a (Homo sapiens, UniProt P07900); experiment: HSP90 radioligand filter binding test ([3H]17AAG competition); settings: [3H]17AAG 0.08 μM, HSP90 1.5 μg/assay, 22° C., 30 min; read-out: IC50 (HSP90 inhibition)
T1 construct: host or cells: E. coli
Excerpt: Test Method for the Measurement of HSP90 Inhibitors
The binding of geldanamycin or 17-allylamino-17-demethoxygeldanamycin (17AAG) to HSP90 and competitive inhibition thereof can be utilised in order to determine the inhibitory activity of the compounds according to the invention (Carreras et al. 2003, Chiosis et al. 2002).
In the specific case, a radioligand filter binding test is used. The radioligand used here is tritium-labelled 17-allylaminogeldanamycin, [3H]17AAG. This filter binding test allows a targeted search for inhibitors which interfere with the ATP binding site.
Recombinant human HSP90a (E. coli expressed, 95% purity);
[3H]17AAG (17-allylaminogeldanamycin, [allylamino-2,3-^3H. Specific activity: 1.11×10^12 Bq/mmol (Moravek, MT-1717);
HEPES filter buffer (50 mM HEPES, pH 7.0, 5 mM MgCl2, BSA 0.01%)
Multiscreen FB (1 μm) filter plate (Millipore, MAFBNOB 50).
The 96-well microtitre filter plates are firstly irrigated and coated with 0.1% of polyethylenimine.
The test is carried out under the following conditions:
Reaction temperature 22° C.
Reaction time: 30 min., shaking at 800 rpm
50 mM HEPES HCl, pH 7.0, 5 mM MgCl2, 0.01% (w/v) of BSA
At the end of the reaction, the supernatant in the filter plate is removed by suction with the aid of a vacuum manifold (Multiscreen Separation System, Millipore), and the filter is washed twice.
The filter plates are then measured in a beta counter (Microbeta, Wallac) with scintillator (Microscint 20, Packard).
“% of control” is determined from the “counts per minutes” values, and the IC-50 value of a compound is calculated therefrom.

`CC(C)(C)NC(=O)c1cc(F)c(F)cc1-c1ccc2nc(N)nc(C(=O)N3Cc4ccccc4C3)c2c1` [Compound A81, 2-[2-Amino-4-(1,3-dihydroisoindole-2-carbonyl)quinazolin-6-yl]-N-tert-butyl-4,5-difluorobenzamide] and `CCN(CCN(C)C)C(=O)c1cc(F)c(F)cc1-c1ccc2nc(N)nc(C(=O)N3Cc4ccccc4C3)c2c1` [Compound A76, 2-[2-Amino-4-(1,3-dihydroisoindole-2-carbonyl)quinazolin-6-yl]-N-(2-dimethylaminoethyl)-N-ethyl-4,5-difluorobenzamide] fall in the same range of IC50: 10 to 1000 nM for the first, 10 to 1000 nM for the second.

`Nc1nc(C(=O)N2Cc3ccccc3C2)c2cc(-c3ccccc3C(=O)N3CCC(N)C3)ccc2n1` (stereo not shown) [Compound A43, {2-amino-6-[2-(3-aminopyrrolidine-1-carbonyl)phenyl]quinazolin-4-yl}-(1,3-dihydroisoindol-2-yl)methanone] and `Nc1nc(C(=O)N2Cc3ccccc3C2)c2cc(-c3ccccc3C(=O)N3CCC3)ccc2n1` [Compound A54] fall in the same range of IC50: 10 to 1000 nM for the first, 10 to 1000 nM for the second.

First: Nc1nc(C(=O)N2Cc3ccccc3C2)c2cc(-c3ccccc3C(=O)N3CCCC3C(=O)O)ccc2n1 (stereo not shown) [Compound A44, 1-{2-[2-Amino-4-(1,3-dihydroisoindole-2-carbonyl)quinazolin-6-yl]-benzoyl}pyrrolidine-2-carboxylic acid]
Second: CNC(=O)C1CCCN1C(=O)c1ccccc1-c1ccc2nc(N)nc(C(=O)N3Cc4ccccc4C3)c2c1 (stereo not shown) [Compound A50, 1-{2-[2-amino-4-(1,3-dihydroisoindole-2-carbonyl)quinazolin-6-yl]benzoyl}pyrrolidine-2-methylamide]
The IC50 of the first is lower: 10 to 1000 nM for the first, 1000 to 10000 nM for the second.

`CN(C)S(=O)(=O)c1ccccc1-c1ccc2nc(N)nc(C(=O)N3Cc4ccccc4C3)c2c1` [Compound A4] and `CNS(=O)(=O)c1ccccc1-c1ccc2nc(N)nc(C(=O)N3Cc4ccccc4C3)c2c1` [Compound A6, 2-[2-Amino-4-(1,3-dihydroisoindole-2-carbonyl)quinazolin-6-yl]-N-methylbenzenesulfonamide] fall in the same range of IC50: 10 to 1000 nM for the first, 10 to 1000 nM for the second.

`CC1CCCN1C(=O)c1ccccc1-c1ccc2nc(N)nc(C(=O)N3Cc4ccccc4C3)c2c1` (stereo not shown) [Compound A42, {2-Amino-6-[2-(2-methylpyrrolidine-1-carbonyl)phenyl]quinazolin-4-yl}-(1,3-dihydroisoindol-2-yl)methanone] and `C[C@@H]1CCCN1C(=O)c1ccccc1-c1ccc2nc(N)nc(C(=O)N3Cc4ccccc4C3)c2c1` [Compound A63] fall in the same range of IC50: 10 to 1000 nM for the first, 10 to 1000 nM for the second.

`CC1CCCN1C(=O)c1cc(F)c(F)cc1-c1ccc2nc(N)nc(C(=O)N3Cc4ccccc4C3)c2c1` (stereo not shown) [Compound A79, {2-Amino-6-[4,5-difluoro-2-(2-methylpyrrolidine-1-carbonyl)phenyl]quinazolin-4-yl}-(1,3-dihydroisoindol-2-yl)methanone] and `CC1CCCN1S(=O)(=O)c1ccccc1-c1ccc2nc(N)nc(C(=O)N3Cc4ccccc4C3)c2c1` (stereo not shown) [Compound A19, {2-Amino-6-[2-(2-methylpyrrolidine-1-sulfonyl)phenyl]quinazolin-4-yl}-(1,3-dihydroisoindol-2-yl)methanone] fall in the same range of IC50: 10 to 1000 nM for the first, 10 to 1000 nM for the second.

`Nc1nc(C(=O)N2Cc3ccccc3C2)c2cc(-c3ccccc3S(=O)(=O)NC3CNC3)ccc2n1` [Compound A26, 2-[2-amino-4-(1,3-dihydroisoindole-2-carbonyl)quinazolin-6-yl]-N-azetidin-3-ylbenzenesulfonamide] and `Nc1nc(C(=O)N2Cc3ccccc3C2)c2cc(-c3ccccc3S(=O)(=O)NC3CC3)ccc2n1` [Compound A52, 2-[2-Amino-4-(1,3-dihydroisoindole-2-carbonyl)quinazolin-6-yl]-N-cyclopropylbenzenesulfonamide] fall in the same range of IC50: 10 to 1000 nM for the first, 10 to 1000 nM for the second.

`CCN(CC)C(=O)c1ccc(Cl)cc1-c1ccc2nc(N)nc(C(=O)N3Cc4ccccc4C3)c2c1` [Compound A87, 2-[2-Amino-4-(1,3-dihydroisoindole-2-carbonyl)quinazolin-6-yl]-4-chloro-N,N-diethylbenzamide] and `CCNC(=O)c1ccc(Cl)cc1-c1ccc2nc(N)nc(C(=O)N3Cc4ccccc4C3)c2c1` [Compound A86, 2-[2-Amino-4-(1,3-dihydroisoindole-2-carbonyl)quinazolin-6-yl]-4-chloro-N-ethylbenzamide] fall in the same range of IC50: 10 to 1000 nM for the first, 10 to 1000 nM for the second.

`CCN(CCO)C(=O)c1ccccc1-c1ccc2nc(N)nc(C(=O)N3Cc4ccccc4C3)c2c1` [Compound A24] and `Nc1nc(C(=O)N2Cc3ccccc3C2)c2cc(-c3ccccc3C(=O)N(CCO)CCO)ccc2n1` [Compound A73] fall in the same range of IC50: 10 to 1000 nM for the first, 10 to 1000 nM for the second.

`CN(Cc1cncn1C)S(=O)(=O)c1ccccc1-c1ccc2nc(N)nc(C(=O)N3Cc4ccccc4C3)c2c1` [Compound A18] and `CN(CCOC(=O)CN)S(=O)(=O)c1ccccc1-c1ccc2nc(N)nc(C(=O)N3Cc4ccccc4C3)c2c1` [Compound A15, 2-({2-[2-amino-4-(1,3-dihydroisoindole-2-carbonyl)quinazolin-6-yl]benzenesulfonyl}methylamino)ethyl aminoacetate] fall in the same range of IC50: 10 to 1000 nM for the first, 10 to 1000 nM for the second.

`Nc1nc(C(=O)N2Cc3ccccc3C2)c2cc(-c3ccccc3S(=O)(=O)N3CCC(N)C3)ccc2n1` (stereo not shown) [Compound A33, {2-amino-6-[2-(3-aminopyrrolidine-1-sulfonyl)phenyl]quinazolin-4-yl}-(1,3-dihydroisoindol-2-yl)methanone] and `Nc1nc(C(=O)N2Cc3ccccc3C2)c2cc(-c3ccccc3S(=O)(=O)N3CCC(O)C3)ccc2n1` (stereo not shown) [Compound A31] fall in the same range of IC50: 10 to 1000 nM for the first, 10 to 1000 nM for the second.

`C[N+]1([O-])CCN(S(=O)(=O)c2ccccc2-c2ccc3nc(N)nc(C(=O)N4Cc5ccccc5C4)c3c2)CC1` [Compound A7] and `Nc1nc(C(=O)N2Cc3ccccc3C2)c2cc(-c3ccccc3S(=O)(=O)N3CCC(F)(F)C3)ccc2n1` [Compound A53, {2-Amino-6-[2-(3,3-difluoropyrrolidine-1-sulfonyl)phenyl]quinazolin-4-yl}-(1,3-dihydroisoindol-2-yl)methanone] fall in the same range of IC50: 10 to 1000 nM for the first, 10 to 1000 nM for the second.

`Nc1nc(C(=O)N2Cc3ccccc3C2)c2cc(-c3ccccc3S(=O)(=O)NC3CCC3)ccc2n1` [Compound A51, 2-[2-Amino-4-(1,3-dihydroisoindole-2-carbonyl)quinazolin-6-yl]-N-cyclobutylbenzenesulfonamide] and `CNCCNS(=O)(=O)c1ccccc1-c1ccc2nc(N)nc(C(=O)N3Cc4ccccc4C3)c2c1` [Compound A16, 2-[2-amino-4-(1,3-dihydroisoindole-2-carbonyl)quinazolin-6-yl]-N-(2-methylaminoethyl)benzenesulfonamide] fall in the same range of IC50: 10 to 1000 nM for the first, 10 to 1000 nM for the second.

`Nc1nc(C(=O)N2Cc3ccccc3C2)c2cc(-c3ccccc3S(=O)(=O)N3CC(F)(F)C3)ccc2n1` [Compound A60] and `Nc1nc(C(=O)N2Cc3ccccc3C2)c2cc(-c3ccccc3C(=O)NC3CC3)ccc2n1` [Compound A48, 2-[2-Amino-4-(1,3-dihydroisoindole-2-carbonyl)quinazolin-6-yl]-N-cyclopropylbenzamide] fall in the same range of IC50: 10 to 1000 nM for the first, 10 to 1000 nM for the second.
